Assay results: ChEMBL document CHEMBL1201862, “PubChem BioAssay data set” (2004)
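Dose response: 5 concentrations. Exposure: 48 h. Format: 96-well plates. Endpoint: linear interpolation; highest concentration if not reached. GI50 marks 50% less growth.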 Active and inactive are the calls of the source. Rule as the data show it: active = GI50 up to about 1.1 µM and inactive = higher.

Legend:
Test in all cases: NCI-60 cell line screen, 48 h
KM-20L2 = tested on: KM-20L2
SR = tested on: SR
SF-268 = tested on: SF-268
XF498 = tested on: XF498
HCT-116 = tested on: HCT-116
DMS-114 = tested on: DMS-114
A549 = tested on: A549
NCI-H226 = tested on: NCI-H226
SK-MEL-5 = tested on: SK-MEL-5
SK-MEL-2 = tested on: SK-MEL-2
HL-60 = tested on: HL-60
SK-MEL-28 = tested on: SK-MEL-28
HOP-18 = tested on: HOP-18
OVCAR-5 = tested on: OVCAR-5
PC-3 = tested on: PC-3
T47D = tested on: T47D
MDA-N = tested on: MDA-N
BT-549 = tested on: BT-549
Hs-578T = tested on: Hs-578T
MDA-MB-435 = tested on: MDA-MB-435

| Structure (SMILES) | GI50 (KM-20L2) | GI50 (SR) | GI50 (SF-268) | GI50 (XF498) | GI50 (HCT-116) | GI50 (DMS-114) | GI50 (A549) | GI50 (NCI-H226) | GI50 (SK-MEL-5) | GI50 (SK-MEL-2) | GI50 (HL-60) | GI50 (SK-MEL-28) | GI50 (HOP-18) | GI50 (OVCAR-5) | GI50 (PC-3) | GI50 (T47D) | GI50 (MDA-N) | GI50 (BT-549) | GI50 (Hs-578T) | GI50 (MDA-MB-435) |
| --- | --- | --- | --- | --- | --- | --- | --- | --- | --- | --- | --- | --- | --- | --- | --- | --- | --- | --- | --- | --- |
| CS(=O)(=O)NNS(=O)(=O)c1ccccc1 | > 100 µM (inactive) | > 100 µM (inactive) | > 100 µM (inactive) | > 100 µM (inactive) | > 100 µM (inactive) | > 100 µM (inactive) | > 100 µM (inactive) | > 100 µM (inactive) | > 100 µM (inactive) | > 100 µM (inactive) | > 100 µM (inactive) |  |  |  |  |  |  |  |  |  |
| COc1cccc(C2N3CCCCC3[C@@H]3c4[nH]c5ccccc5c4CCN23)c1OC (stereo not given in full) | 14.3 µM (inactive) |  | 11.5 µM (inactive) | 15.2 µM (inactive) | 17.3 µM (inactive) | 15.5 µM (inactive) | 15.8 µM (inactive) |  | 15.8 µM (inactive) | 14.5 µM (inactive) | 15.1 µM (inactive) | 16.8 µM (inactive) | 17 µM (inactive) | 15.9 µM (inactive) |  |  |  |  |  |  |
| CC/C(=N/O)c1ccc2[nH]c3c(C)cc([N+](=O)[O-])c(C)c3c2c1 |  | 24.4 µM (inactive) | 61.4 µM (inactive) | 50.2 µM (inactive) | 41.8 µM (inactive) | > 100 µM (inactive) | 17.1 µM (inactive) | > 100 µM (inactive) | 57.3 µM (inactive) | > 100 µM (inactive) | 12.7 µM (inactive) | > 100 µM (inactive) | > 100 µM (inactive) | > 100 µM (inactive) |  |  |  |  |  |  |
| CC1(C)C(=NNC(=S)NN)C(C)(C)C1=NNC(=S)NN | > 100 µM (inactive) |  | > 100 µM (inactive) | > 100 µM (inactive) |  | > 100 µM (inactive) | > 100 µM (inactive) | 4.9 µM (inactive) | 58.5 µM (inactive) | > 100 µM (inactive) | > 10 µM (inactive) | > 100 µM (inactive) |  | > 100 µM (inactive) |  |  |  |  |  |  |
| CN[C@@H](C)[C@@H](N)c1ccccc1 |  |  |  |  | > 100 µM (inactive) |  | > 100 µM (inactive) | > 100 µM (inactive) | > 100 µM (inactive) |  |  | > 100 µM (inactive) | > 100 µM (inactive) |  |  |  |  |  |  |  |
| Cc1cc2c(C=O)n[nH]c2c(C#N)c1C | 65.9 µM (inactive) |  | 31.9 µM (inactive) |  | 30.4 µM (inactive) | 26.5 µM (inactive) | > 100 µM (inactive) |  | 32.6 µM (inactive) | > 100 µM (inactive) |  | 48.4 µM (inactive) |  | > 100 µM (inactive) |  |  |  |  |  |  |
| Nc1ccc2nc(NCc3ccc(F)cc3)cnc2c1 | > 100 µM (inactive) | 66.7 µM (inactive) | > 100 µM (inactive) | > 100 µM (inactive) | > 100 µM (inactive) | 75.5 µM (inactive) | > 100 µM (inactive) | > 100 µM (inactive) | > 100 µM (inactive) | > 100 µM (inactive) | 54.1 µM (inactive) | > 100 µM (inactive) |  | > 100 µM (inactive) |  |  |  |  |  |  |
| CCOC(=O)NC1C2CC(=O)OC(O2)C1OC(C)=O (stereo not given) | > 100 µM (inactive) | > 100 µM (inactive) | > 100 µM (inactive) |  | > 100 µM (inactive) |  | > 100 µM (inactive) | 0.424 µM (active) | > 100 µM (inactive) | > 100 µM (inactive) |  | > 100 µM (inactive) | > 100 µM (inactive) | > 100 µM (inactive) |  |  |  |  |  |  |
| CCOC(=O)COc1cccc2c1C(=O)CCO2 | > 100 µM (inactive) |  | > 100 µM (inactive) | > 100 µM (inactive) | > 100 µM (inactive) | > 100 µM (inactive) | > 100 µM (inactive) |  | > 100 µM (inactive) | > 100 µM (inactive) | > 100 µM (inactive) | > 100 µM (inactive) |  | > 100 µM (inactive) |  |  |  |  |  |  |
| N#CC(C(=N/O)/C(=N\O)C(C#N)c1ccccc1)c1ccccc1 (stereo not given) | > 100 µM (inactive) |  | > 100 µM (inactive) | > 100 µM (inactive) | > 100 µM (inactive) | > 100 µM (inactive) | > 100 µM (inactive) | > 100 µM (inactive) | > 100 µM (inactive) | > 100 µM (inactive) | > 100 µM (inactive) | > 100 µM (inactive) | > 100 µM (inactive) | > 100 µM (inactive) |  |  |  |  |  |  |
| CCOC(=O)/C(=C/c1ccc(C(=O)OC)cc1)N(CC)CC | 31.2 µM (inactive) | 47.9 µM (inactive) | 40.1 µM (inactive) |  | 37.2 µM (inactive) | 32.3 µM (inactive) | 24.5 µM (inactive) | 35.1 µM (inactive) | 37.7 µM (inactive) | 44.9 µM (inactive) | 27.4 µM (inactive) | > 100 µM (inactive) |  | > 100 µM (inactive) |  |  |  |  |  |  |
| CCN(CC)C(=O)c1cccc2c(OC)ccc(OC)c12 | > 100 µM (inactive) | > 100 µM (inactive) | > 100 µM (inactive) |  | > 100 µM (inactive) | > 100 µM (inactive) | > 100 µM (inactive) | > 100 µM (inactive) | > 100 µM (inactive) | > 100 µM (inactive) | > 100 µM (inactive) | > 100 µM (inactive) | > 100 µM (inactive) | > 100 µM (inactive) |  |  |  |  |  |  |
| CC(C)(C)OC(=O)N[C@H]1CC2(C=C(Cl)C(=O)C(Cl)=C2)OC1=O | 20.4 µM (inactive) | 1.93 µM (inactive) | 17.3 µM (inactive) | 19.3 µM (inactive) | 14.8 µM (inactive) |  | 38.3 µM (inactive) | > 59.7 µM (inactive) | 19.1 µM (inactive) | 19.1 µM (inactive) | 2.13 µM (inactive) | 11.4 µM (inactive) | 16.5 µM (inactive) | 19.5 µM (inactive) | 17.1 µM (inactive) | 14.9 µM (inactive) | 17.1 µM (inactive) | 16 µM (inactive) | 26.4 µM (inactive) |  |
| [N-]=[N+]=NCC(O)Cn1cnc2c(NC(=O)c3ccccc3)ncnc21 (stereo not given) | > 100 µM (inactive) |  | > 100 µM (inactive) | > 100 µM (inactive) | > 100 µM (inactive) | 67.1 µM (inactive) | > 100 µM (inactive) | > 100 µM (inactive) | > 100 µM (inactive) | > 100 µM (inactive) | > 100 µM (inactive) | > 100 µM (inactive) | > 100 µM (inactive) | > 100 µM (inactive) |  |  |  |  |  |  |
| c1ccc2c(OCCSCCCCCCCCCCSCCOc3cccc4ccccc34)cccc2c1 | > 100 µM (inactive) |  | > 100 µM (inactive) |  |  | > 100 µM (inactive) | > 100 µM (inactive) | > 100 µM (inactive) | > 100 µM (inactive) | > 100 µM (inactive) | > 100 µM (inactive) | > 100 µM (inactive) | > 100 µM (inactive) | > 100 µM (inactive) |  |  |  |  |  |  |
| Nc1ncnc2c1ncn2C1OC(CSC(F)(F)F)C(O)C1O (stereo not given) | > 100 µM (inactive) |  | > 100 µM (inactive) |  | > 100 µM (inactive) | > 100 µM (inactive) | > 100 µM (inactive) | > 100 µM (inactive) | > 100 µM (inactive) | > 100 µM (inactive) | > 100 µM (inactive) | > 100 µM (inactive) | > 100 µM (inactive) | > 100 µM (inactive) |  |  |  |  |  |  |
| COc1ccc2cc3n(c2c1)CCc1cc(OC)c(OC)cc1-3 | > 100 µM (inactive) |  | > 100 µM (inactive) | > 100 µM (inactive) |  | > 100 µM (inactive) | > 100 µM (inactive) | > 100 µM (inactive) |  | > 100 µM (inactive) | > 100 µM (inactive) | > 100 µM (inactive) | > 100 µM (inactive) |  |  |  |  |  |  |  |
| Cc1cc(O)nc(NNC(C#N)c2ccc(N(C)C)cc2)n1 (stereo not given) | > 100 µM (inactive) | 92.9 µM (inactive) | > 100 µM (inactive) |  | > 100 µM (inactive) | > 100 µM (inactive) | > 100 µM (inactive) | > 100 µM (inactive) | > 100 µM (inactive) | > 100 µM (inactive) | > 100 µM (inactive) | > 100 µM (inactive) | > 100 µM (inactive) | > 100 µM (inactive) |  |  |  |  |  |  |
| C[C@@H](NC1CCCC[C@H]1O)c1ccccc1 (stereo not given in full) | > 100 µM (inactive) |  | > 100 µM (inactive) | > 100 µM (inactive) | > 100 µM (inactive) |  | > 100 µM (inactive) | > 100 µM (inactive) | > 100 µM (inactive) | > 100 µM (inactive) | > 100 µM (inactive) | > 100 µM (inactive) | > 100 µM (inactive) |  |  |  |  |  |  |  |
| CCN(CC)CCOc1ccc(C(O)(Cc2ccc(OC)cc2)c2ccccc2)cc1 (stereo not given) | 3.24 µM (inactive) | 10.7 µM (inactive) | 21.5 µM (inactive) | 14 µM (inactive) | 13.8 µM (inactive) | 14.9 µM (inactive) | 21.8 µM (inactive) | 26.4 µM (inactive) | 13.2 µM (inactive) | 14.9 µM (inactive) | 7.52 µM (inactive) | 13.9 µM (inactive) |  | 20 µM (inactive) |  |  |  |  |  |  |
| O=C(O)/C=C/c1ccc(O)c(O)c1 [CAFFEIC ACID] | > 100 µM (inactive) |  | > 100 µM (inactive) |  | > 100 µM (inactive) | > 100 µM (inactive) | > 100 µM (inactive) | > 100 µM (inactive) | > 100 µM (inactive) | > 100 µM (inactive) | > 100 µM (inactive) | > 100 µM (inactive) | > 100 µM (inactive) | > 100 µM (inactive) | > 100 µM (inactive) |  |  |  |  |  |
| C=C1C(=O)O[C@@H]2O[C@@]3(C)CC[C@H]4[C@H](C)CC[C@@H]1[C@@]24O3 [DEOXYARTEMISITENE] |  | 7.18 µM (inactive) | 28.1 µM (inactive) |  | 10.8 µM (inactive) |  | 34.8 µM (inactive) | 40 µM (inactive) | 19.1 µM (inactive) | 18.2 µM (inactive) | 2.63 µM (inactive) | 40.6 µM (inactive) |  | 38.5 µM (inactive) | 19.5 µM (inactive) | 13.6 µM (inactive) | 13.7 µM (inactive) | 7.46 µM (inactive) | 39 µM (inactive) | 29.2 µM (inactive) |
